{"source": "patent EP4763971A1", "about": "“MULTI-ORGANS-ON-A-CHIP WITH INVERTED MICROWEIR STRUCTURE AS MULTI-CELL CULTURE PLATFORM AND USE THEREOF” (Humanase, priority 2023, dated 2025)", "key": {"[1]": {"test_system": "cardiomyocytes (Cardiosight-S)", "conditions": "control heart-on-a-chip, 9,000 µM cyclophosphamide, compared to cardiomyocytes not treated with cyclophosphamide", "source_text": "(§1) Next, cardiomyocytes (Cardiosight-S) differentiated from human pluripotent stem cells (hPSCs) from NEXEL were mixed with a hydrogel such as collagen, and then injected using a pipette into the cell inlet connected to the inner cell chamber of the multi-organ-on-a-chip prepared in Example 1, thereby injecting cardiomyocytes into the inner cell chamber.\n(§2) Next, the hydrogel comprised in the injected cardiomyocyte mixture was cured to fix the cardiomyocytes within the cell chamber. Depending on the type of hydrogel, curing is performed using different curing methods. In the case of collagen, curing was performed via temperature change by placing in an incubator for at least 1 hour, and then cardiomyocytes were continuously cultured in the incubator.\nThe culture was performed by supplying a culture medium comprising a mixture of Cardiosight-S Media supplemented with supplement (50X) and Minimum Essential Media Eagle (MEM, high-glucose, gibco) supplemented with 25 mM HEPES (4-(2-hydroxyethyl)-1-piperazineethanesulfonic acid, gibco), 10% (v/v) FBS, P/S (100 Uml-1 penicillin/100 Uml-1 streptomycin, Sigma-Aldrich Co., MO) at a certain ratio. […]"}, "[2]": {"test_system": "cardiomyocytes (Cardiosight-S)", "procedure": "as §1\nNext, 1 x 10^5 cultured hepatocytes (HepG2) were injected using a pipette into each cell inlet connected to the two outer cell chambers of the multi-organ-on-a-chip prepared in Example 1, thereby injecting hepatocytes into the two outer cell chambers.\nas §2\nFurther, hepatocytes were fixed and cultured using the same method. […]"}}, "note": "Where two headings read alike, the source gives them in different places.", "data": [{"smiles": "O=P1(N(CCCl)CCCl)NCCCO1", "note": "(stereo not drawn) [cyclophosphamide]", "values": [{"measurement": "beating rate of the cardiomyocytes increased", "setting": "[1]", "value": "31.76 ± 0.59", "unit": "%"}, {"measurement": "effect on the beating rate of cardiomyocytes", "setting": "[2]; liver-heart-on-a-chip compared to the control heart-on-a-chip, 0, 1,000, 5,000, or 9,000 µM (FIG. 8)", "value": "more significant effect"}, {"measurement": "beating rate of the cardiomyocytes increased", "setting": "[2]; liver-heart-on-a-chip, 9,000 µM cyclophosphamide, compared to cardiomyocytes not treated with cyclophosphamide", "value": "177.9 ± 2.56", "unit": "%"}]}]}
